Data set [1] relates to adhesion of Mn++-activated TK-1 cells (α4+ β7+ β1−) to VCAM-1. As to the kind of experiment: Cell adhesion assay: Mn2+-activated TK-1 cells to VCAM-1-Fc coated wells. In kind it is cell-based, mouse. The note with it: for maximal inhibition of adhesion to VCAM-1 / inhibition of cell adhesion to VCAM-1: Mn++-activated TK-1 cells; for inhibition of cell adhesion to VCAM-1: highest concentration tested, 50 μM. Here is the method:
The soluble VCAM-1-Fc chimera was produced using the glutamine synthetase gene amplification system. The extracellular portions of human VCAM-1 fused to the Fc domain of human IgG1 was expressed from the pEE14 vector (kindly provided by Dr Chris Bebbington, Celltech Ltd, UK) in CHO K1 cells as described previously (27).
(§1) Lab-Tek 16-well glass slides (Nunc) or flat-bottom 96-well plates (Nunc Maxisorp) were coated overnight at 4° C. with purified VCAM-1-Fc at 10 μg/well in 100 μl of 0.1 M carbonate buffer (pH 9.5). After washing plates were blocked with 100% heat-inactivated FCS, and washed with Hanks balanced salt solution (HBSS) containing 10 mM Hepes, 2 mM Ca^2+ and 2 mM Mn^2+. TK-1 cells were either left unlabeled or labeled with the fluorescent dye chloromethyl fluorescein diacetate (CMFDA; Molecular Probes, Oreg.). For peptide inhibition studies, TK-1 cells were preincubated with peptide in serum-free medium for 30 min at 37° C. and activated by suspension in an Mn^2+-containing buffer (HBSS: 10 mM Hepes containing 2 mM Ca^2+, 2 mM Mn^2+, and 2% FCS). Human IgG1 Ab (10 μg/ml; Sigma) was added to prevent nonspecific capture of cells to the Fc portion of […]. Cells were checked for viability by trypan blue exclusion, added to wells (10^6 cells/well), and incubated for 30 min at 37° C. in a humidified atmosphere of 5% CO2. Non-adherent cells were removed by inverse centrifugation of the plates at 70×g for 5 min followed by gentle pipette washing. The number of unlabeled adherent cells was determined by counting the number of adherent cells in four independent fields at 100× magnification under an inverted microscope. The fluorescence of CMFDA-labeled adherent cells was measured using a VICTOR 1420 multilabel counter (Wallac). Representative data are reported as mean±SD of two independent experiments performed in duplicate. Antibodies against the integrin β7 subunit (Fib504 mAb), and α4β7 complex (DATK32 mAb) were included as positive controls, and added (1:100 dilution of ascites) to cells 20 min prior to the adhesion assay.

Data set [2] concerns adhesion of TK-1 (α4β7+ α4β1−) cells to MAdCAM-1. As to the kind of experiment: Cell adhesion assay: TK-1 cells to MAdCAM-1-Fc coated plates. It is filed as cell-based, mouse. The note with it: PMA-activated TK-1 cells, peptide up to 50 μM.
Data set [3] has as its system TK-1 cells. The data set can be described thus: Cell viability of peptide-treated TK-1 cells (trypan blue exclusion). In kind it is cell-based, mouse. As to conditions: data not shown. Here is the method: as §1, with “Non-adherent cells were removed by inverse centrifugation of the plates at 70×g for 5 min followed by gentle pipette washing.” left out, “Representative data are reported as mean±SD of two independent experiments performed in duplicate. Antibodies against the integrin β7 subunit (Fib504 mAb), and α4β7 complex (DATK32 mAb) were included as positive controls, and added (1:100 dilution of ascites) to cells 20 min prior to the adhesion assay.” left out

In data set [4] the target is T1, soluble VCAM-1-Fc chimera (extracellular portions of human VCAM-1 fused to the Fc domain of human IgG1) (human, UniProt P19320 25-698).
T1 sequence (looked up): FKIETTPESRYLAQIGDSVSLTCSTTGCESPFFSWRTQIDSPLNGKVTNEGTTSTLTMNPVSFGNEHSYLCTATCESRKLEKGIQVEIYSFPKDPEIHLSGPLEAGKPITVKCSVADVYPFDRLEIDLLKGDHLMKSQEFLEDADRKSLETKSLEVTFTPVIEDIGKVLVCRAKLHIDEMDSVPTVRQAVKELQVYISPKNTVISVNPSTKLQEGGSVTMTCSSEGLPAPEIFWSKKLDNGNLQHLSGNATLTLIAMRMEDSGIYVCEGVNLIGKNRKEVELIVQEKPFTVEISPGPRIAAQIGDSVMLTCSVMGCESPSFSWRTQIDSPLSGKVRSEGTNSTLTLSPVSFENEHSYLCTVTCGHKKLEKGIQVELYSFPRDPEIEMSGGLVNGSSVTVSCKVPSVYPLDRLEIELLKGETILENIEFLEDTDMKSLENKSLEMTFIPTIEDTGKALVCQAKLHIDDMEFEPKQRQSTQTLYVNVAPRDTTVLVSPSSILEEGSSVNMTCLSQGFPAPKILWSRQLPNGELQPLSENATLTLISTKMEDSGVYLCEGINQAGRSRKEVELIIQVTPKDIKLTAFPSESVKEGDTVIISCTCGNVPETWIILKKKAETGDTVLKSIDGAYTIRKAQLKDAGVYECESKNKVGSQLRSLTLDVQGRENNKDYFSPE
The data set can be described thus: cell-based or functional assay.

Ends that are not written are not given here.

Consider `CC[C@H](C)[C@H](NC(=O)[C@H](Cc1ccc(O)cc1)NC(=O)[C@H](CO)NC(=O)[C@H](Cc1c[nH]c2ccccc12)NC(=O)[C@H](CO)NC(=O)[C@H](CC(=O)O)NC(=O)[C@H](CCCCN)NC(=O)[C@H](CCCCN)NC(=O)[C@H](Cc1c[nH]c2ccccc12)NC(=O)[C@H](CCCCN)NC(=O)[C@H](CCSC)NC(=O)[C@H](CCCNC(=N)N)NC(=O)[C@H](CCCNC(=N)N)NC(=O)[C@H](CC(N)=O)NC(=O)[C@H](CCC(N)=O)NC(=O)[C@H](Cc1ccccc1)NC(=O)[C@H](Cc1c[nH]c2ccccc12)NC(=O)[C@@H](NC(=O)[C@H](CCCCN)NC(=O)[C@@H](NC(=O)[C@H](CCC(N)=O)NC(=O)[C@@H](N)CCCNC(=N)N)[C@@H](C)CC)[C@@H](C)CC)C(=O)N[C@@H](CC(N)=O)C(=O)N[C@@H](CO)C(=O)N[C@@H](CCCCN)C(=O)N[C@@H](CO)C(=O)N[C@@H](CC(N)=O)C(=O)N[C@@H](CC(=O)O)C(=O)N[C@@H](CC(=O)O)C(=O)O` [Pen-DSWSYINSKSNDD, DSWSYINSKSNDD], for which the “inhibition of T cell adhesion to VCAM-1 (in words)” value in data set [1] (Mn2+-activated TK-1 cells, FIG. 2A) is on record as “active”. Further, the “maximal inhibition of adhesion to VCAM-1” value in data set [1] (at 30 μM) worked out at 72%. For the molecule DSWS, the “inhibition of PMA-induced T cell adhesion to MAdCAM-1 (in words)” value in data set [2] was “inactive”. As to DSWSY [r9-DSWSY], the “inhibition of cell adhesion to VCAM-1” value in data set [1] is reported as 75%.

As for “DSWSYINS (not fully specified (N-terminus); also: N-terminal carrier biotinylated penetratin or r9, not given here for this peptide; listed as Homo sapiens) [r9-DSWSYINS]”, the “maximal inhibition of adhesion to VCAM-1” value in data set [1] (at 6 μM peptide) is ~67%. Also, the cells killed in data set [3] (50 μM peptide) turned out to be 15%. “KSNDD ({biotinylated r9}-KSNDD; listed as Homo sapiens) [r9-KSNDD]”: the “inhibition of cell adhesion to VCAM-1” value in data set [1] is 27%. On the same count and under the same terms, as for QYKSILQEENRRD [Pen-QYKSILQEENRRD], the figure is 14%. Consider SWSY (listed as Homo sapiens), for which the “inhibition of PMA-induced T cell adhesion to MAdCAM-1 (in words)” value in data set [2] is given as “retained the ability of the parent peptide DSWSY to inhibit T cell adhesion”. Take “YINSK ({biotinylated r9}-YINSK; listed as Homo sapiens) [r9-YINSK]”: the “inhibition of cell adhesion to VCAM-1” value in data set [1] turned out to be 80%. As for “YINSKSNDD (not fully specified (N-terminus); also: N-terminal carrier biotinylated penetratin or r9, not given here for this peptide; listed as Homo sapiens) [r9-YINSKSNDD]”, the “maximal inhibition of adhesion to VCAM-1” value in data set [1] (at 6 μM peptide) is reported as ~67%. In addition, the “effect on cell viability (in words)” value in data set [3] is “no effect”.

B1: integrin α4β7 on mouse TK-1 T lymphoma cells (α4β7+ α4β1-) (receptor)
chain 1: YNLDPENALLYQGPSGTLFGYSVVLHSHGSKRWLIVGAPTASWLSNASVVNPGAIYRCGIRKNPNQTCEQLQSGSPSGEPCGKTCLEERDNQWLGVTLSRQPGENGSIVTCGHRWKNIFYMKSDNKLPTGICYVMPSDLRTELSKRMAPCYKDYTRKFGENFASCQAGISSFYTQDLIVMGAPGSSYWTGTVFVYNITTNQYKAFVDRQNQVKFGSYLGYSVGAGHFRSPHTTEVVGGAPQHEQIGKAYIFSIDENELNIVYEMKGKKLGSYFGASVCAVDLNADGFSDLLVGAPMQSTIREEGRVFVYINSGMGAVMVEMERVLVGSDKYAARFGESIANLGDIDNDGFEDIAIGAPQEDDLRGAVYIYNGRVDGISSTYSQRIEGQQISKSLRMFGQSISGQIDADNNGYVDVAVGAFQSDSAVLLRTRPVVIVEASLSHPESVNRTKFDCTENGLPSVCMHLTLCFSYKGKEVPGYIVLFYNVSLDVHRKAESPSRFYFFSNGTSDVITGSIRVSSSGEKCRTHQAFMRKDVRDILTPIHVEATYHLGHHVITKRNTEEFPPLQPILQQKKEKDVIRKMINFARFCAYENCSADLQVSAKVGFLKPYENKTYLAVGSMKTIMLNVSLFNAGDDAYETTLNVQLPTGLYFIKILDLEEKQINCEVTESSGIVKLACSLGYIYVDRLSRIDISFLLDVSSLSRAHEDLSISVHASCENEGELDQVRDNRVTLTIPLRYEVMLTVHGLVNPTSFVYGSSEENEPETCMAEKLNLTFHVINTGISMAPNVSVKIMVPNSFLPQDDKLFNVLDVQTTTGQCHFKHYGRECTFAQQKGIAGTLTDIVKFLSKTDKRLLYCMKADQHCLDFLCNFGKMESGKEASVHIQLEGRPSILEMDETSSLKFEIKATAFPEPHPKVIELNKDENVAHVFLEGLHHQRPKRHFTIIIITISLLLGLIVLLLISCVMWKAGFFKRQYKSILQEENRRDSWSYVNSKSNDD
chain 2: ELDTKITSSGEAAEWEDPDLSLQGSCQPVPSCQKCILSHPSCAWCKQLNFTASGEAEARRCARREELLARGCPAQELEEPRGRQEVLQDKPLSQGDRGEGATQLAPQRIRVTLRPGEPQKFRVRFLRAAGYPVDLYYLMDLSYSMKDDLERVRQLGHALLVRLQEVTHSVRIGFGSFVDKTVLPFVSTVPSKLHHPCPSRLERCQPPFSFHHVLSLTGDAQAFEREVGRQNVSGNLDSPEGGFDAILQAALCQEQIGWRNVSRLLVFTSDDTFHTAGDGKLGGIFMPSDGRCHLDSNGVYTNSAEFDYPSVGQVAQALTAANIQPIFAVTGATLPVYQELRQLIPKSAVGELSEDSSNVVQLIMDAYDSLSSTVTLEHSPLPPGVSISFESHCKGPEKTEGEAGDRGQCNDVRVNQTVDFWVTLQATHCLPEAHVLRLWALGFSEELTVELHTVCDCNCGDAQPHAPYCSDGQGDLQCGICSCAPGRLGQLCECSEADLSSPDLESGCRAPNGTGPLCSGKGRCQCGRCSCSGQSSGRLCECDDASCERHEGILCGGFGHCQCGVCHCHANHTGRACECSKSVDSCVSPEGGLCSGHGYCKCNRCQCLDGYYGALCDQCLGCKSPCEQYRDCAECGAFGTGPLAANCSVVCADVNVTLTLAPNLDDGWCKERTIDNQLFFFLVEHAASGIVLRVRPQEKGVDHTRAIILGCTGGIVAVGLGLVLAYRLSVEIYDRREYRRFEKEQQQLNWKQDNNPLYKSAITTTVNPRFQGTNGRSPSLSLTREAD
B1: in data set [4], the “IC50 of the cell-permeable peptide Pen-… for inhibition of adhesion of Mn++-activated TK-1 cells to VCAM-1” value worked out at 20 µM.

Source of the values: US20080153756A1, “Novel Peptides and Methods for the Treatment of Inflammatory Disorders” (Auckland Uniservices Limited, priority 2005, published 2008).
